Test results published in paper PMC11959706, “Allatostatin-C signaling in the crab Carcinus maenas is implicated in the ecdysis program” (The Journal of Experimental Biology, 2025).
Bridge positions count the residues as written; N and C are the ends. Ends that are not written are not given here.

How the values were obtained:
AST-CR(d) = assay: Aequorin luminescence receptor assay, AST-CR(d) construct in control cells expressing a Gq subunit; format: cell-based, Carcinus maenas; conditions: CHO-K1-Aeq control cells expressing a Gq subunit, transfected with AST-CR(d) construct
Procedure: Chinese hamster ovary (CHO-K1) cells containing stably expressed apoaequorin (Perkin Elmer, Boston, MA) and either Gα16 or Gq subunit (control cells) were cultured in Dulbecco's Modified Eagle Medium (DMEM) F-12 Nutrient Mixture Glutamax (Gibco®) supplemented with 10% fetal bovine serum (Gibco®). Cells were maintained in vented T75 flasks at 37°C in 5% CO2. Cells grown in a monolayer to approximately 60% confluency were transfected with pcDNA 3.1 constructs using FugeneHD® (Promega) according to the manufacturer's recommendations. Transfection medium was prepared by combining 800 µl Opti-MEM® (Gibco) with 10 µg vector and the cells further incubated overnight. […] Cell suspensions were gently stirred and injected (50 µl per well) using a Mithras LB 940 microplate reader (Berthold Technologies, Bad Wildbad, Germany) and light emission (Ca^2+ response recorded for 30 s). Cells were then lysed by injection of 50 µl per well 0.3% Triton-X in BSA medium, and light emission recorded for a further 10 s to measure total Ca^2+ response. […] Data were analyzed using Mikrowin 2010 v5 (Mikrotek Laborsysteme, Overath, Germany) and SigmaPlot v15 (Systat Software, Grafiti, Slough, UK).

[1] = system: antiserum raised against Manduca sexta AST-C; assay: AST-C radioimmunoassay standard curves and cross-reactivity; format: binding; conditions: competitive RIA with iodinated AST-C tracer, antiserum 1:1000; typical standard curves
Procedure: AST-C (300 pmol, dissolved in 10 µl 200 mmol l^−1 phosphate buffer at pH 7.5) was radio iodinated with 9.25–12.5 MBq NaI^125 in 10^−5 mol l^−1 NaOH (PerkinElmer, Boston MA), using Chloramine-T ([Bolton, 1989]). Following termination of the reaction (4.3 µg cysteine in 100 µl phosphate buffer) and quenching (500 µl of 0.2 mg ml^−1 KI in phosphate buffer), radiolabeled peptide was separated from unincorporated iodide on Sep-Pak C18 cartridges (Waters, Milford, MA, USA), by firstly washing with 10 ml of 200 mmol l^−1 phosphate buffer then eluting the peptide with 40% isopropanol in 500 µl fractions. Small quantities (2 µl) were then taken for counting. Specific activities of 8–16 TBq mmol^−1 were routinely obtained.
RIA conditions were as follows: iodinated AST-C 35,000 dpm per 50 µl PBS containing 0.05% BSA and 0.02% sodium azide. An antiserum raised against Manduca sexta AST-C (a generous gift from Dr N. Audsley, FERA, York) was used at 1:1000 in PBS at 50 µl per tube. Standard peptides 2–2000 fmol per 50 µl and unknowns were assayed in duplicate. Tubes were first incubated for 6 h at room temperature, without tracer, which was then added, followed by 4°C incubation overnight. […]

Y-organs = assay: Y-organ in vitro bioassay of ecdysteroid synthesis (ecdysteroid RIA); format: cell-based, Carcinus maenas; conditions: 100 nmol l^−1, 24 h incubation; N=3–6
Procedure: To determine the possible activity of AST-C and/or AST-CC on ecdysteroid synthesis, Y-organs (YOs) were dissected from ice-anaesthetized crabs and used in the in vitro bioassay as detailed previously ([Webster, 1986]). Following 24 h incubations, culture medium was aspirated and snap frozen in liquid nitrogen prior to ecdysteroid RIA. YOs were sonicated in PBS, centrifuged (13,000 g for 5 min at room temperature) and assayed for protein concentration using a BCA protein kit (EMD Millipore, Burlington MA, USA). Protein concentrations (BSA standards) were used to normalize ecdysteroid synthesis between YO pairs.
Ecdysteroid RIAs were performed on 20 µl aliquots of culture medium using the following conditions: 100 μl 1:2000 anti-ecdysteroid serum HB-2E (a kind gift from R. D Watson, Alabama University), 100 µl H^−3 Ponasterone A [24, 25, 26, 27-3H (N), 3.5 TBq mmol^−1 (American Radiochemical Company, St Louis, MO, USA)] at 28,000 dpm per tube. 25-Deoxyecdysone (a kind gift from Prof. R. Lafont, Sorbonne University, Paris) was used as a standard (range 2500–19.5 pg per tube), and unknowns and standards were assayed in triplicate. Bound was separated from free using 50 µl per tube immobilized donkey anti-rabbit nitrocellulose suspension (Sac-Cel), as detailed for the AST-C RIA. Pellets were resuspended in 600 µl Hi-Safe 3 (Perkin Elmer) prior to counting. Using this RIA, both ecdysone and 25-deoxyecdysone (the two ecdysteroids synthesized by C. maenas YOs) were equally recognized.

AST-C receptor = conditions: cited from earlier work; for EC50: Apis mellifera single AST-C receptor, ref Urlacher et al., 2016, read-out: EC50, receptor activation; for ED50, receptor activation: Tribolium castaneum AST-C receptor, ref Audsley et al., 2013
From the text: Thus, the cognate receptor for AST-CCC remains elusive. Despite the well-known similarity in receptor sequences between AST-CR and the somatostatin receptor ([Krienkamp et al., 2002]; [Mayoral et al., 2010]; [Jékely, 2013]; [Verl ...

heart = conditions: H. americanus; often seen, the converse in some individuals; ref Dickinson et al., 2018; cited from earlier work

| Substance | Luminescent response in control cells (AST-CR(d)) | ED50 in AST-C RIA standard curve [1] [fmol per tube] | Effect on ecdysteroid synthesis by Y-organs (Y-organs) | EC50 (AST-C receptor) [nM] | ED50, receptor activation (AST-C receptor) [nM] | Effect on heart rate (heart) |
| --- | --- | --- | --- | --- | --- | --- |
| GNGDGRLYWRCYFNAVSCF (disulfide 11-18 (inferred)) [AST-CC, C. maenas AST-C family neuropeptide; synthetic (GenScript)] | no luminescent response | 8000 | entirely without effect | 15.4 | 105.7 | decrease in amplitude and frequency of heart rate |
| pQIRYHQCYFNPISCF (disulfide) [AST-C, allatostatin-C, C. maenas AST-C family neuropeptide with C-terminal PISCF motif; synthetic (GenScript)] | no luminescent response | 20 | entirely without effect | 14.6 | 25 | decrease in amplitude and frequency of heart rate |
